The source of these data is patent US12552804B2, “Tricyclic heterocycles as FGFR inhibitors” (Incyte Corporation, priority 2019, dated 2026).

Molecules are shown by their SMILES.

For the assay, the target named is wild-type un-phosphorylated FGFR3 protein (Homo sapiens, UniProt P22607). In words: FGFR Enzymatic Assay (FRET detection of peptide phosphorylation). The format is biochemical. Particulars: pre-incubated for 4 hours, read-out: FGFR3_Ki. How it is done: The inhibitor potency of the exemplified compounds was determined in an enzyme discontinuous assay that measures peptide phosphorylation using FRET measurements to detect product formation. Inhibitors were serially diluted in DMSO and a volume of 0.2 μL was transferred to the wells of a 384-well plate. A 5 μL/well volume of enzyme isoforms of FGFR (−1, −2, −3 wild-type and mutant isoforms, −4) including phosphorylated and un-phosphorylated proteins diluted in assay buffer (50 mM HEPES, 10 mM MgCl2, 1 mM EGTA, 0.01% Tween-20, 5 mM DTT, pH 7.5) was added to the plate and pre-incubated with inhibitor for 5 to 15 minutes at ambient temperature. Appropriate controls (enzyme blank and enzyme with no inhibitor) were included on the plate. […] The ATP Km values were pre-determined in a separate series of experiments. The reaction plate was incubated at 25° C. for 1 hr and the reactions were ended with the addition of 5 μL/well of quench solution (50 mM Tris, 150 mM NaCl, 0.5 mg/mL BSA, pH 7.8; 45 mM EDTA, 600 nM staurosporin, with Perkin Elmer Lance Reagents at 3.75 nM Eu-antibody PY20 and 180 nM APC-Streptavidin). The plate was allowed to equilibrate for ˜10 minutes at ambient temperature before scanning on a PheraStar plate reader (BMG Labtech) instrument.
Either GraphPad prism or XLfit was used to analyze the data. The IC50 values were derived by fitting the data to a four parameter logistic equation producing a sigmoidal dose-response curve with a variable Hill coefficient. Prism equation: Y=Bottom+(Top−Bottom)/(1+10^((LogIC50−X)*Hill slope)); XLfit equation: Y=(A+((B−A)/(1+((X/C)^D)))) where X is the logarithm of inhibitor concentration and Y is the response.
The data in Table 1 was measured in wild-type un-phosphorylated FGFR3 protein.

Chain of wild-type un-phosphorylated FGFR3 protein (P22607 23-806): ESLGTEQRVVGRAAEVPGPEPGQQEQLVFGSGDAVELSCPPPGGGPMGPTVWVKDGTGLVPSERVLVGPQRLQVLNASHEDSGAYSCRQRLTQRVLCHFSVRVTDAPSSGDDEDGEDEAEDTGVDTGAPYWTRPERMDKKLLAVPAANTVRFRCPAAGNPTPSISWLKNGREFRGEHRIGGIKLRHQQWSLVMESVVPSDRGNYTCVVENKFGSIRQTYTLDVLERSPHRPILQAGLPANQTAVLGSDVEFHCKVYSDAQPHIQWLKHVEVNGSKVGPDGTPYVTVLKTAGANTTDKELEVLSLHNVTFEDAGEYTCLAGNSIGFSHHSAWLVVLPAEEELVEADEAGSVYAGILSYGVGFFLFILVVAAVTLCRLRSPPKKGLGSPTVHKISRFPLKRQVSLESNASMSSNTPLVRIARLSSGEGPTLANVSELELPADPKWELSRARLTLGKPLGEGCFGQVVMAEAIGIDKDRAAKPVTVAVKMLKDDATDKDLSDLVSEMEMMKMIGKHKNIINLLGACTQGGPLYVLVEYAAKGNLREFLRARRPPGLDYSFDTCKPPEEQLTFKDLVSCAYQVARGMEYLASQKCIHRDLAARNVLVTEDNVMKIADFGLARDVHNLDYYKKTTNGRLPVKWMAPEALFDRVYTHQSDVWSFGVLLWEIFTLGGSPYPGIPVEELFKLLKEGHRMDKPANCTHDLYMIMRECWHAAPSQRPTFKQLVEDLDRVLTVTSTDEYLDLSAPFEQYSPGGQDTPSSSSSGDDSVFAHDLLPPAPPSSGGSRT

Take `Cc1c(-c2c(Cl)cccc2Cl)nc2c3cc(-c4cnn(C)c4)c(O)nc3ccn12` [Example 31, 2-(2,6-Dichlorophenyl)-3-methyl-9-(1-methyl-1H-pyrazol-4-yl)imidazo[2,1-f][1,6]naphthyridin-8-ol]: the Ki was 0.01 to 0.1 µM. Turning to `Cc1c(-c2c(Cl)cccc2Cl)nc2c3c(O[C@H]4CCOC4)c(-c4cnn(C)c4)cnc3ccn12` [Example 32, (S)-2-(2,6-Dichlorophenyl)-3-methyl-9-(1-methyl-1H-pyrazol-4-yl)-10-((tetrahydrofuran-3-yl)oxy)imidazo[2,1-f][1,6]naphthyridine], the Ki lay in the range of 0.1 to 0.4 µM. Turning to `Cc1c(-c2c(Cl)cccc2Cl)nc2c3cc(-c4cnn(C)c4)c(N(C)C)nc3ccn12` [Example 33, 2-(2,6-Dichlorophenyl)-N,N,3-trimethyl-9-(1-methyl-1H-pyrazol-4-yl)imidazo[2,1-f][1,6]naphthyridin-8-amine], the Ki fell in the range of 0.01 to 0.1 µM.

Turning to `C=CC(=O)Nc1ccc(Cl)c(-c2nc3c4cc(-c5cnn(C)c5)cnc4ccn3c2C)c1Cl` [Example 34, N-(2,4-Dichloro-3-(3-methyl-9-(1-methyl-1H-pyrazol-4-yl)imidazo[2,1-f][1,6]naphthyridin-2-yl)phenyl)acrylamide], the Ki is < 0.01 µM.

Consider `C=CC(=O)Nc1cccc(-c2nc3c4cc(-c5cnn(C)c5)cnc4ccn3c2C)c1` [Example 35, N-(3-(3-Methyl-9-(1-methyl-1H-pyrazol-4-yl)imidazo[2,1-f][1,6]naphthyridin-2-yl)phenyl)acrylamide], for which the Ki lay within 0.01 to 0.1 µM. With `C=CC(=O)Nc1ccccc1-c1nc2c3cc(-c4cnn(C)c4)cnc3ccn2c1C` [Example 36, N-(2-(3-Methyl-9-(1-methyl-1H-pyrazol-4-yl)imidazo[2,1-f][1,6]naphthyridin-2-yl)phenyl)acrylamide] the figure was 0.1 to 0.4 µM; with `Cc1c(-c2c(Cl)cccc2Cl)nc2c3cc(-c4cnn(C5CN(C(=O)C6(N)CC6)C5)c4)cnc3ccn12` [Example 37, (1-Aminocyclopropyl)(3-(4-(2-(2,6-dichlorophenyl)-3-methylimidazo[2,1-f][1,6]naphthyridin-9-yl)-1H-pyrazol-1-yl)azetidin-1-yl)methanone], < 0.01 µM; with `Cc1c(-c2c(Cl)cccc2Cl)nc2c3cc(-c4cnn(C5CN(C(=O)Cn6ccnc6)C5)c4)cnc3ccn12` [Example 38, 1-(3-(4-(2-(2,6-Dichlorophenyl)-3-methylimidazo[2,1-f][1,6]naphthyridin-9-yl)-1H-pyrazol-1-yl)azetidin-1-yl)-2-(1H-imidazol-1-yl)ethan-1-one], < 0.01 µM. The figure for `Cc1c(-c2c(Cl)cccc2Cl)nc2c3cc(-c4cnn(C5CN(C(=O)c6cocn6)C5)c4)cnc3ccn12` [Example 39, (3-(4-(2-(2,6-Dichlorophenyl)-3-methylimidazo[2,1-f][1,6]naphthyridin-9-yl)-1H-pyrazol-1-yl)azetidin-1-yl)(oxazol-4-yl)methanone] is < 0.01 µM; for `Cc1c(-c2c(Cl)cccc2Cl)nc2c3cc(-c4cnn(C5CN(C(=O)C6(N)CCOCC6)C5)c4)cnc3ccn12` [Example 40, (4-Aminotetrahydro-2H-pyran-4-yl)(3-(4-(2-(2,6-dichlorophenyl)-3-methylimidazo[2,1-f][1,6]naphthyridin-9-yl)-1H-pyrazol-1-yl)azetidin-1-yl)methanone] it is < 0.01 µM; for `Cc1c(-c2c(Cl)cccc2Cl)nc2c3cc(-c4cnn(C5CN(C(=O)CC#N)C5)c4)cnc3ccn12` [Example 41, 3-(3-(4-(2-(2,6-Dichlorophenyl)-3-methylimidazo[2,1-f][1,6]naphthyridin-9-yl)-1H-pyrazol-1-yl)azetidin-1-yl)-3-oxopropanenitrile] it is < 0.01 µM.

In the case of `O=C(O)c1ccc(Cn2cc(-c3cnc4ccn5cc(-c6c(Cl)cccc6Cl)nc5c4c3)cn2)cc1F` [Example 42, 4-((4-(2-(2,6-Dichlorophenyl)imidazo[2,1-f][1,6]naphthyridin-9-yl)-1H-pyrazol-1-yl)methyl)-2-fluorobenzoic acid], the Ki is < 0.01 µM. With `CN(C)C(=O)c1ccc(-n2cc(-c3cnc4ccn5cc(-c6c(Cl)cccc6Cl)nc5c4c3)cn2)cc1` [Example 43, 4-(4-(2-(2,6-Dichlorophenyl)imidazo[2,1-f][1,6]naphthyridin-9-yl)-1H-pyrazol-1-yl)-N,N-dimethylbenzamide], the Ki was in the range of 0.01 to 0.1 µM. In the case of `COCC(=O)N[C@H]1CC[C@H](n2cc(-c3cnc4ccn5cc(-c6c(Cl)cccc6Cl)nc5c4c3)cn2)CC1` [Example 44, N-((1r,4r)-4-(4-(2-(2,6-Dichlorophenyl)imidazo[2,1-f][1,6]naphthyridin-9-yl)-1H-pyrazol-1-yl)cyclohexyl)-2-methoxyacetamide], the Ki was < 0.01 µM. Consider `CN(C)C(=O)N[C@H]1CC[C@H](n2cc(-c3cnc4ccn5cc(-c6c(Cl)cccc6Cl)nc5c4c3)cn2)CC1` [Example 45, 3-((1r,4r)-4-(4-(2-(2,6-Dichlorophenyl)imidazo[2,1-f][1,6]naphthyridin-9-yl)-1H-pyrazol-1-yl)cyclohexyl)-1,1-dimethylurea], for which the Ki was < 0.01 µM. The figure for `CC(=O)N1CC2(CCC(n3cc(-c4cnc5ccn6cc(-c7c(Cl)cccc7Cl)nc6c5c4)cn3)CC2)C1` [Example 46, 1-(7-(4-(2-(2,6-Dichlorophenyl)imidazo[2,1-f][1,6]naphthyridin-9-yl)-1H-pyrazol-1-yl)-2-azaspiro[3.5]nonan-2-yl)ethan-1-one] is < 0.01 µM; for `Cc1c(-c2c(Cl)cccc2Cl)nc2c3cc(-c4cnn(C5CCOCC5)c4)cnc3ccn12` [Example 47, 2-(2,6-Dichlorophenyl)-3-methyl-9-(1-(tetrahydro-2H-pyran-4-yl)-1H-pyrazol-4-yl)imidazo[2,1-f][1,6]naphthyridine] it is < 0.01 µM. The figure for `Cc1c(-c2c(Cl)cccc2Cl)nc2c3cc(-c4cnn([C@H]5CC[C@H](O)CC5)c4)cnc3ccn12` [Example 48, (1r,4r)-4-(4-(2-(2,6-Dichlorophenyl)-3-methylimidazo[2,1-f][1,6]naphthyridin-9-yl)-1H-pyrazol-1-yl)cyclohexan-1-ol] is < 0.01 µM; for `Cc1c(-c2c(Cl)cccc2Cl)nc2c3cc(-c4cnn(C5CCC(C)(C(=O)O)CC5)c4)cnc3ccn12` (centres unmarked) [Example 49, 4-(4-(2-(2,6-Dichlorophenyl)-3-methylimidazo[2,1-f][1,6]naphthyridin-9-yl)-1H-pyrazol-1-yl)-1-methylcyclohexane-1-carboxylic acid] it is < 0.01 µM; for `CN(C)C(=O)N1CCC(n2cc(-c3cnc4ccn5cc(-c6c(Cl)cccc6Cl)nc5c4c3)cn2)C1` (centres unmarked) [Example 50, 3-(4-(2-(2,6-Dichlorophenyl)imidazo[2,1-f][1,6]naphthyridin-9-yl)-1H-pyrazol-1-yl)-N,N-dimethylpyrrolidine-1-carboxamide] it is < 0.01 µM. Consider `CN(C)S(=O)(=O)N1CCC(n2cc(-c3cnc4ccn5cc(-c6c(Cl)cccc6Cl)nc5c4c3)cn2)C1` (centres unmarked) [Example 51, 3-(4-(2-(2,6-Dichlorophenyl)imidazo[2,1-f][1,6]naphthyridin-9-yl)-1H-pyrazol-1-yl)-N,N-dimethylpyrrolidine-1-sulfonamide], for which the Ki is < 0.01 µM. With `CC(=O)N1CC[C@H](n2cc(-c3cnc4ccn5c(C)c(-c6c(Cl)cccc6Cl)nc5c4c3)cn2)C1` [Example 52, (S)-1-(3-(4-(2-(2,6-Dichlorophenyl)-3-methylimidazo[2,1-f][1,6]naphthyridin-9-yl)-1H-pyrazol-1-yl)pyrrolidin-1-yl)ethan-1-one] the figure was < 0.01 µM; with `Cc1c(-c2c(Cl)cccc2Cl)nc2c3cc(-c4cnn([C@H]5CCN(C(=O)CO)C5)c4)cnc3ccn12` [Example 53, (S)-1-(3-(4-(2-(2,6-Dichlorophenyl)-3-methylimidazo[2,1-f][1,6]naphthyridin-9-yl)-1H-pyrazol-1-yl)pyrrolidin-1-yl)-2-hydroxyethan-1-one], < 0.01 µM; with `Cc1c(-c2c(Cl)cccc2Cl)nc2c3cc(-c4cnn(C56CC5CN(C(=O)CO)C6)c4)cnc3ccn12` (centres unmarked) [Example 54, 1-(1-(4-(2-(2,6-Dichlorophenyl)-3-methylimidazo[2,1-f][1,6]naphthyridin-9-yl)-1H-pyrazol-1-yl)-3-azabicyclo[3.1.0]hexan-3-yl)-2-hydroxyethan-1-one], < 0.01 µM. The figure for `O=C(CO)N1CC[C@H](n2cc(-c3cnc4ccn5c(CO)c(-c6c(Cl)cccc6Cl)nc5c4c3)cn2)C1` [Example 55, (S)-1-(3-(4-(2-(2,6-Dichlorophenyl)-3-(hydroxymethyl)imidazo[2,1-f][1,6]naphthyridin-9-yl)-1H-pyrazol-1-yl)pyrrolidin-1-yl)-2-hydroxyethan-1-one] is < 0.01 µM; for `CC(=O)N1CC[C@H](n2cc(-c3cnc4ccn5c(CO)c(-c6c(Cl)cccc6Cl)nc5c4c3)cn2)C1` [Example 56, (S)-1-(3-(4-(2-(2,6-Dichlorophenyl)-3-(hydroxymethyl)imidazo[2,1-f][1,6]naphthyridin-9-yl)-1H-pyrazol-1-yl)pyrrolidin-1-yl)ethan-1-one] it is < 0.01 µM.
